Results reported in ChEMBL document CHEMBL3877281, “Extending the structure-activity relationship study of marine natural ningalin B analogues as P-glycoprotein inhibitors” (Eur J Med Chem, 2017).

How the values were obtained:
Homo sapiens [1] = organism: Homo sapiens; experiment: Inhibition of P-gp in human MDA435/LCC6MDR cells assessed as potentiation of paclitaxel-induced cytotoxicity at 1 uM measured after 5 days by Cell Titer 96 Aqueous assay relative to paclitaxel alone; format: cell-based
[2] = Cytotoxicity against mouse L929 cells measured after 3 days by MTS assay; format: toxicity
[3] = Inhibition of P-gp in human MDA435/LCC6MDR cells assessed as reduction of paclitaxel cytotoxic IC50 by half measured after 5 days by Cell Titer 96 Aqueous assay; format: cell-based; settings: 120 h
[4] = Inhibition of P-gp in human MDA435/LCC6MDR cells assessed as reduction of doxorubicin cytotoxic IC50 by half after 5 days by Cell Titer 96 Aqueous assay; format: cell-based; settings: 120 h
[5] = Inhibition of P-gp in human MDA435/LCC6MDR cells assessed as reduction of vinblastine cytotoxic IC50 by half measured after 5 days by Cell Titer 96 Aqueous assay; format: cell-based; settings: 120 h
[6] = Inhibition of P-gp in human MDA435/LCC6MDR cells assessed as reduction of vincristine cytotoxic IC50 by half measured after 5 days by Cell Titer 96 Aqueous assay; format: cell-based; settings: 120 h
P-gp [7] = experiment: Selectivity index, ratio of IC50 for cytotoxicity against mouse L929 cells to EC50 for inhibition of P-gp in human MDA435/LCC6MDR cells assessed as reduction of paclitaxel cytotoxic IC50 by half; format: toxicity, cell-based; settings: probe paclitaxel, read-out: Ratio IC50/EC50
P-gp [8] = experiment: Selectivity index, ratio of IC50 for cytotoxicity against mouse L929 cells to EC50 for inhibition of P-gp in human MDA435/LCC6MDR cells assessed as reduction of doxorubicin cytotoxic IC50 by half; format: toxicity, cell-based; settings: probe doxorubicin, read-out: Ratio IC50/EC50
P-gp [9] = experiment: Selectivity index, ratio of IC50 for cytotoxicity against mouse L929 cells to EC50 for inhibition of P-gp in human MDA435/LCC6MDR cells assessed as reduction of vinblastine cytotoxic IC50 by half; format: toxicity, cell-based; settings: probe vinblastine, read-out: Ratio IC50/EC50
P-gp [10] = experiment: Selectivity index, ratio of IC50 for cytotoxicity against mouse L929 cells to EC50 for inhibition of P-gp in human MDA435/LCC6MDR cells assessed as reduction of vincristine cytotoxic IC50 by half; format: toxicity, cell-based; settings: probe vincristine, read-out: Ratio IC50/EC50
Homo sapiens [11] = organism: Homo sapiens; experiment: Potency index, ratio of EC50 for verapamil to EC50 for test compound for inhibition of P-gp in human MDA435/LCC6MDR cells assessed as reduction of paclitaxel cytotoxic IC50 by half; format: cell-based
Homo sapiens [12] = organism: Homo sapiens; experiment: Potency index, ratio of EC50 for verapamil to EC50 for test compound for inhibition of P-gp in human MDA435/LCC6MDR cells assessed as reduction of doxorubicin cytotoxic IC50 by half; format: cell-based
Homo sapiens [13] = organism: Homo sapiens; experiment: Potency index, ratio of EC50 for verapamil to EC50 for test compound for inhibition of P-gp in human MDA435/LCC6MDR cells assessed as reduction of vinblastine cytotoxic IC50 by half; format: cell-based
Homo sapiens [14] = organism: Homo sapiens; experiment: Potency index, ratio of EC50 for verapamil to EC50 for test compound for inhibition of P-gp in human MDA435/LCC6MDR cells assessed as reduction of vincristine cytotoxic IC50 by half; format: cell-based
Homo sapiens [15] = organism: Homo sapiens; experiment: Inhibition of P-gp in human MDA435/LCC6MDR cells assessed as increase in doxorubicin accumulation at 2 uM measured after 150 mins by fluorescence spectrophotometric method relative to control; format: cell-based
Homo sapiens [16] = organism: Homo sapiens; experiment: Inhibition of P-gp in human MDA435/LCC6MDR cells assessed as increase in rhodamine-123 accumulation at 2 uM measured after 150 mins by fluorescence spectrophotometric method relative to control; format: cell-based
Homo sapiens [17] = organism: Homo sapiens; experiment: Potency index, ratio of compound effect to verapamil effect for inhibition of P-gp in human MDA435/LCC6MDR cells assessed as increase in rhodamine-123 accumulation; format: cell-based
[18] = Inhibition of P-gp in human MDA435/LCC6MDR cells assessed as increase in doxorubicin accumulation to half of parental LCC6 cells measured after 150 mins by fluorescence spectrophotometric method; format: cell-based; settings: MDA-435/LCC6, 2.5 h

SMILES	fold change (FC) (Homo sapiens [1])	also measured
COc1ccc(C2=C(c3ccc(OC)c(OC)c3)C(=O)N(CC(=O)c3ccc(OCc4ccccc4)c(OC)c3)C2=O)cc1	22.1	–
COc1ccc(CCN(C)CCCC(C#N)(c2ccc(OC)c(OC)c2)C(C)C)cc1OC (stereo unspecified) [VERAPAMIL]	–	IC50 at 3 days [2]: 89000 nM
COc1ccc(C2=C(c3ccccc3)C(=O)N(CC(=O)c3ccc(OCc4ccccc4)c(OC)c3)C2=O)cc1OC	5.9	–
COc1ccc(C2=C(c3ccc(C)cc3)C(=O)N(CC(=O)c3ccc(OCc4ccccc4)c(OC)c3)C2=O)cc1OC	8.6	–
COc1cc(C(=O)CN2C(=O)c3ccccc3C2=O)ccc1OCc1ccccc1	1.1	–
COc1ccc(C2=C(c3ccc(OC)c(OC)c3)C(=O)N(Cc3cc(OC)c(OC)c(OC)c3)C2=O)cc1	5.1	–
COc1ccc(C(=O)CN2C(=O)C(c3ccc(OC)c(OC)c3)=C(c3ccc(OCc4ccccc4)c(OC)c3)C2=O)cc1	4.5	–
COc1ccc(C2=C(c3ccc(OC)c(OC)c3)C(=O)N(CC(=O)c3ccc(OCc4cc(OC)c(OC)c(OC)c4Br)c(OC)c3)C2=O)cc1OC	48	IC50 at 3 days [2]: > 100000 nM; EC50 [3]: 165 nM; EC50 [4]: 120 nM; EC50 [5]: 137 nM; EC50 [6]: 132 nM; selectivity ratio (P-gp [7]): > 606; selectivity ratio (P-gp [8]): > 833; selectivity ratio (P-gp [9]): > 730; selectivity ratio (P-gp [10]): > 758; Ratio EC50 (Homo sapiens [11]): 2 to 3.7; Ratio EC50 (Homo sapiens [12]): 2 to 3.7; Ratio EC50 (Homo sapiens [13]): 2 to 3.7; Ratio EC50 (Homo sapiens [14]): 2 to 3.7; fold change (FC) (Homo sapiens [15]): 2.4; fold change (FC) (Homo sapiens [16]): 4.8; Ratio (Homo sapiens [17]): 1.7; EC50 [18]: 78 nM
COc1ccc(C2=C(c3ccc(OC)c(OC)c3)C(=O)N(Cc3ccc(OCc4ccccc4)c(OC)c3)C2=O)cc1OC	9.3	–
COc1ccc(C2=C(SC)C(=O)N(CC(=O)c3ccc(OCc4ccccc4)c(OC)c3)C2=O)cc1OC	1.4	–
COc1ccc(C2=C(c3ccc(OC)c(OCc4ccccc4)c3)C(=O)N(Cc3cc(OC)c(OC)c(OC)c3)C2=O)cc1OC	11.9	–
COc1ccc(C(=O)CN2C(=O)c3ccccc3C2=O)cc1	1.3	–
COc1cccc(C2=C(c3ccc(OC)c(OC)c3)C(=O)N(CC(=O)c3ccc(OCc4ccccc4)c(OC)c3)C2=O)c1	8.8	–
COc1ccc(C2=C(c3ccccc3)C(=O)N(Cc3cc(OC)c(OC)c(OC)c3)C2=O)cc1OC	7.1	–
COc1cccc(C2=C(c3ccc(OC)c(OC)c3)C(=O)N(Cc3cc(OC)c(OC)c(OC)c3)C2=O)c1	11.4	–
COc1ccc(C2=C(c3ccc(C)cc3)C(=O)N(Cc3ccc(S(C)(=O)=O)cc3)C2=O)cc1OC	3	–
COc1ccc(C2=C(c3ccc(OC)c(OC)c3)C(=O)N(Cc3cc(OC)c(OC)c(OC)c3)C2=O)cc1OC	13.8	–
COc1ccc(C2=C(c3ccc(OCc4ccccc4)c(OC)c3)C(=O)N(CC(=O)c3ccc(OCc4ccccc4)c(OC)c3)C2=O)cc1OC	1.4	–
COc1ccc(C2=C(c3ccc(OC)c(OC)c3)C(=O)N(CC(=O)c3ccc(S(C)(=O)=O)cc3)C2=O)cc1OC	1.4	–
COc1ccc(C2=C(c3ccc(OC)c(OC)c3)C(=O)N(CC(=O)c3ccc(OCc4ccccc4)c(OC)c3)C2=O)cc1OC	39.8	–
COc1ccc(C2=C(c3ccc(OC)c(OC)c3)C(=O)N(Cc3ccc(OCc4ccccc4)cc3)C2=O)cc1OC	4.2	–
COc1ccc(C(=O)CN2C(=O)C(c3ccccc3)=C(c3ccc(OC)c(OC)c3)C2=O)cc1	2.6	–
COc1ccc(C2=C(c3ccc(OC)c(OC)c3)C(=O)N(Cc3ccc(S(C)(=O)=O)cc3)C2=O)cc1OC	3.4	–
COc1ccc(C(=O)CN2C(=O)C(c3ccc(OC)c(OC)c3)=C(c3ccc(OC)c(OC)c3)C2=O)cc1	7.6	–
COc1ccc(C2=CC(=O)N(CC(=O)c3ccc(OCc4ccccc4)c(OC)c3)C2=O)cc1OC	1.4	–
COc1cc(CN2C(=O)c3ccccc3C2=O)cc(OC)c1OC	1.2	–
COc1ccc(C(=O)CN2C(=O)C(c3ccc(OC)cc3)=C(c3ccc(OC)c(OC)c3)C2=O)cc1	2.7	–
COc1ccc(C(=O)CN2C(=O)C(c3cccc(OC)c3)=C(c3ccc(OC)c(OC)c3)C2=O)cc1	3.5	–
COc1ccc(C2=C(c3ccc(C)cc3)C(=O)N(CC(=O)c3ccc(S(C)(=O)=O)cc3)C2=O)cc1OC	2	–
